Experimental data: patent publication US4073913A, “N^2 -arylsulfonyl-L-argininamides and the pharmaceutically acceptable salts thereof” (Mitsubishi Chemical Industries Limited, priority 1974, dated 1978)
Non-standard residues stand in square brackets, D forms with d. Residues, ends and D or L forms follow the SMILES beside them. ξ: configuration not given here. *: point of attachment. Dansyl = CN(C)c1cccc2c(S(=O)(=O)*)cccc12; ξPip = O=C(O)C1CCCCN1

Target: T1, thrombin (Bos taurus, UniProt P00735)
T1 construct: clotting of bovine fibrinogen
Experiment: fibrinogen coagulation time (concentration required to prolong the coagulation time by a factor of two)
Assay type: biochemical
Conditions: bovine fibrinogen, thrombin 5 units/ml, borate saline buffer pH 7.4, 25° C; control 50-55 seconds prolonged to 100-110 seconds
Protocol: The measurement of the fibrinogen coagulation time was conducted as follows:
Immediately after mixing, the reaction mixture was transferred from the ice bath to a bath maintained at 25° C. Coagulation times were taken as the period between the time of transference to the 25° C bath and the time of the first appearance of fibrin threads. […] The term "concentration required to prolong the coagulation time by a factor of two" is the concentration of an active ingredient required to prolong the normal coagulation time 50-55 seconds to 100-110 seconds.

Structure (SMILES) | IC (2-fold clotting time) [µM]
COc1cc2ccc(S(=O)(=O)N[C@@H](CCCNC(=N)N)C(=O)N3CCCC[C@@H]3C(=O)O)cc2cc1OC [compound 220] | 2
COc1ccc2ccc(S(=O)(=O)N[C@@H](CCCNC(=N)N)C(=O)N(CCSC)CC(=O)O)cc2c1 [compound 67] | 1
CC1CCN(C(=O)[C@H](CCCNC(=N)N)NS(=O)(=O)c2cccc3ccccc23)C(C(=O)O)C1 (stereo partly shown) [compound 179] | 1
COc1cc2ccc(S(=O)(=O)N[C@@H](CCCNC(=N)N)C(=O)N3CCCC[C@H]3C(=O)O)cc2cc1OC [compound 221] | 15
COCCN(CC(=O)O)C(=O)[C@H](CCCNC(=N)N)NS(=O)(=O)c1ccc2ccc(OC)cc2c1 [compound 35] | 0.5
COc1cc2ccc(S(=O)(=O)N[C@@H](CCCNC(=N)N)C(=O)N(C)C(Cc3ccccc3)C(=O)O)cc2cc1OC (stereo partly shown) [compound 209] | 2
COc1cc2ccc(S(=O)(=O)N[C@@H](CCCNC(=N)N)C(=O)N3CCCCC3C(=O)O)cc2cc1OC (stereo partly shown) [compound 71] | 5
COCCN(CC(=O)O)C(=O)[C@H](CCCNC(=N)N)NS(=O)(=O)c1cccc2c(OC)cccc12 [compound 43] | 2.5
CCOC(=O)CCN(CC(=O)O)C(=O)[C@H](CCCNC(=N)N)NS(=O)(=O)c1ccc2cc(OC)c(OC)cc2c1 [compound 196] | 6.5
COCCN(CC(=O)O)C(=O)[C@H](CCCNC(=N)N)NS(=O)(=O)c1cccc2c1CCCC2 [compound 132] | 10
CCSCCN(CC(=O)O)C(=O)[C@H](CCCNC(=N)N)NS(=O)(=O)c1ccc2cc(OC)c(OC)cc2c1 [compound 69] | 5
COc1cc2ccc(S(=O)(=O)N[C@@H](CCCNC(=N)N)C(=O)N(CCc3ccccc3)CC(=O)O)cc2cc1OC [compound 54] | 3
COCCN(CC(=O)Oc1ccc2c(c1)CCC2)C(=O)[C@H](CCCNC(=N)N)NS(=O)(=O)c1ccc2cc(OC)c(OC)cc2c1 [compound 203] | 30
CCCCN(CC(=O)O)C(=O)[C@H](CCCNC(=N)N)NS(=O)(=O)c1ccc2ccc(C)cc2c1 [compound 143] | 0.3
COCCN(CC(=O)O)C(=O)[C@H](CCCNC(=N)N)NS(=O)(=O)c1cc(OC)c2cc(OC)ccc2c1 [compound 23] | 4
CCCCCN(CC(=O)O)C(=O)[C@H](CCCNC(=N)N)NS(=O)(=O)c1ccc2cc(OC)c(OC)cc2c1 [compound 7] | 5
Cc1ccc2ccc(S(=O)(=O)N[C@@H](CCCNC(=N)N)C(=O)N(CC(=O)O)CC3CCCO3)cc2c1 (stereo partly shown) [compound 161] | 0.2
COc1ccc2ccc(S(=O)(=O)N[C@@H](CCCNC(=N)N)C(=O)N(CC(=O)O)CC3CCCO3)cc2c1 (stereo partly shown) [compound 164] | 0.15
CCCCCCCCOC(=O)CN(CCOC)C(=O)[C@H](CCCNC(=N)N)NS(=O)(=O)c1ccc2cc(OC)c(OC)cc2c1 [compound 200] | 2
COc1ccc2ccc(S(=O)(=O)N[C@@H](CCCNC(=N)N)C(=O)N3CCCCCC3C(=O)O)cc2c1 (stereo partly shown) [compound 205] | 2.5
CCCCCN(C(=O)[C@H](CCCNC(=N)N)NS(=O)(=O)c1ccc2cc(OC)c(OC)cc2c1)C(C)C(=O)O (stereo partly shown) [compound 118] | 2
COCCN(C(=O)[C@H](CCCNC(=N)N)NS(=O)(=O)c1ccc2cc(OC)c(OC)cc2c1)C(C)C(=O)O (stereo partly shown) [compound 129] | 5
COc1ccc2ccc(S(=O)(=O)N[C@@H](CCCNC(=N)N)C(=O)N(CC(=O)O)Cc3ccco3)cc2c1 [compound 162] | 0.2

Structure (SMILES) | IC (2-fold clotting time) [µM]
COCCN(CCCC(=O)O)C(=O)[C@H](CCCNC(=N)N)NS(=O)(=O)c1ccc2cc(OC)c(OC)cc2c1 [compound 17] | 2.5
COc1cc2ccc(S(=O)(=O)N[C@@H](CCCNC(=N)N)C(=O)N(CC(=O)O)CC(C)C)cc2cc1OC [compound 5] | 2
CN(C)c1cccc2c(S(=O)(=O)N[C@@H](CCCNC(=N)N)C(=O)N3CCCCC3C(=O)O)cccc12 (stereo partly shown) [compound 183] (Dansyl-Arg-[ξPip]-OH) | 0.35
COCCN(CC(=O)O)C(=O)[C@H](CCCNC(=N)N)NS(=O)(=O)c1cccc2cc(C)c(C)cc12 [compound 152] | 10
COc1ccc2cc(S(=O)(=O)N[C@@H](CCCNC(=N)N)C(=O)N(CC3CCCCC3)C(C)C(=O)O)cc(OC)c2c1 (stereo partly shown) [compound 126] | 4.5
CCOCCN(CCC(=O)O)C(=O)[C@H](CCCNC(=N)N)NS(=O)(=O)c1ccc2cc(OC)c(OC)cc2c1 [compound 21] | 4
COc1cc2ccc(S(=O)(=O)N[C@@H](CCCNC(=N)N)C(=O)N3CCOCC3C(=O)O)cc2cc1OC (stereo partly shown) [compound 191] | 5
CCOC(=O)CN(CCOC)C(=O)[C@H](CCCNC(=N)N)NS(=O)(=O)c1ccc2cc(OC)c(OC)cc2c1 [compound 14] | 1.5
COc1ccc2cc(S(=O)(=O)N[C@@H](CCCNC(=N)N)C(=O)N(CC(=O)O)Cc3ccccc3)cc(OC)c2c1 [compound 58] | 6.5
CCCCN(CC(=O)O)C(=O)[C@H](CCCNC(=N)N)NS(=O)(=O)c1ccc2ccc(OC)cc2c1 [compound 39] | 0.5
COc1cc2ccc(S(=O)(=O)N[C@@H](CCCNC(=N)N)C(=O)N(CC(=O)O)C3CCCCC3)cc2cc1OC [compound 111] | 5
COc1ccc2ccc(S(=O)(=O)N[C@@H](CCCNC(=N)N)C(=O)N3CC[S+]([O-])CC3C(=O)O)cc2c1 (stereo partly shown) [compound 204] | 4.5
Cc1ccc2ccc(S(=O)(=O)N[C@@H](CCCNC(=N)N)C(=O)N3CCC(C(C)C)CC3C(=O)O)cc2c1 (stereo partly shown) [compound 175] | 0.1
COc1ccc2ccc(S(=O)(=O)N[C@@H](CCCNC(=N)N)C(=O)N(CCc3ccccc3)CC(=O)O)cc2c1 [compound 64] | 20
COc1cc2ccc(S(=O)(=O)N[C@@H](CCCNC(=N)N)C(=O)N(CCC(=O)O)CCc3ccccc3)cc2cc1OC [compound 56] | 50
COc1ccc2cc(S(=O)(=O)N[C@@H](CCCNC(=N)N)C(=O)N(CCC(=O)O)Cc3ccccc3)ccc2c1 [compound 62] | 15
COCCCN(CC(=O)O)C(=O)[C@H](CCCNC(=N)N)NS(=O)(=O)c1ccc2cc(OC)c(OC)cc2c1 [compound 19] | 5
CCCC(NC(=O)[C@H](CCCNC(=N)N)NS(=O)(=O)c1ccc2cc(OC)c(OC)cc2c1)C(=O)O (stereo partly shown) [compound 214] | 15
COc1cc2ccc(S(=O)(=O)N[C@@H](CCCNC(=N)N)C(=O)N(CC(=O)O)CC(C)OC)cc2cc1OC (stereo partly shown) [compound 212] | 6.5
COc1ccc2ccc(S(=O)(=O)N[C@@H](CCCNC(=N)N)C(=O)N(CC[S+](C)[O-])CC(=O)O)cc2c1 (stereo partly shown) [compound 222] | 6.5
CCCC(C(=O)O)N(CC(=O)O)C(=O)[C@H](CCCNC(=N)N)NS(=O)(=O)c1ccc2cc(OC)c(OC)cc2c1 (stereo partly shown) [compound 207] | 55
COc1cc2ccc(S(=O)(=O)N[C@@H](CCCNC(=N)N)C(=O)N(CCc3ccccc3)C(C)C(=O)O)cc2cc1OC (stereo partly shown) [compound 122] | 1.5
CCCCN(CC(=O)O)C(=O)[C@H](CCCNC(=N)N)NS(=O)(=O)c1cccc2c(N(C)C)cccc12 [compound 153] | 4
